Literature values as cited in US20210176995A1, “Disinfection Composition Comprising Tartaric Acid and Lactic Acid” (Wiping Systems ApS, priority 2016, published 2021).

Test system: Aspergillus b., Bacillus S., Cereus and Clostridium spores
Settings: surfaces

Compound | killing of Aspergillus b., Bacillus S., Cereus and Clostridium spores
PHMB | can't be killed
CCCCCCCCCC[N+](C)(C)CCCCCCCCCC.[Cl-] [DDAC] | can't be killed
CCO [alcohol, ethanol] | can't be killed
